Source: US9539298B2, “Lissencephaly therapeutic agent” (OSAKA CITY UNIVERSITY, priority 2010, dated 2017)

Assays:
[1] = molecular target: m-calpain (derived from porcine kidney) (Sus scrofa, UniProt I3LQD3); experiment: Measurement of inhibitory activity against m-calpain; format: biochemical; conditions: casein substrate, 30° C., 60 minutes; read-out: enzyme inhibitory activities (μM) m-calpain
Method: More specifically, 200 μL of a reaction solution containing 0.5 mg/mL casein, 50 mM Tris-HCl buffer (pH 7.4), 20 mM dithiothreitol and 1.0 nmol μ-calpain (derived from human red blood cells, Cosmo Bio Co., Ltd.) or m-calpain (derived from porcine kidney, Cosmo Bio Co., Ltd.) was added to individual 2.5 μL portions of DMSO solution containing a varying concentration of a test sample in a 96-well plate. Then, 50 μL of 20 mM aqueous calcium chloride was added thereto, and reaction was performed at 30° C. for 60 minutes. 100 μL of the reaction solution was transferred to another 96-well plate, and purified water (50 μL) and 50% aqueous solution (100 μL) of Protein Assay Dye Reagent (available from Bio-Rad Laboratories, Inc.; catalogue No. 500-600) were added thereto. […] The absorbance of a reaction mixture prepared in the same manner as mentioned above, except that a DMSO solution containing no sample was used as a control value; and the absorbance of a reaction mixture prepared in the same manner as mentioned above, except that a 1 mM aqueous EDTA solution (50 μL) was used in place of 20 mM aqueous calcium chloride, was used as a blank value. […] Inhibition rate (%){1−(measured value−blank test value)/(control value−blank test value)}×100

[2] = test system: LIS1 heterozygous mice (lissencephaly model mice); experiment: Behavior analysis: rotor rod test; format: in vivo, mouse; conditions: M2 and M3 groups, 200 μg/g per day oral
Method: To conduct a behavior analysis experiment, wild-type mice and Lis1 (^+/−) heterozygous mice were divided into five groups (C group, M1 group, M2 group, M3 group, and M4 group). The details regarding the mice in each group are described below. CE-2 (CLEA Japan, Inc.) was used as mice feed. The wild-type mice and heterozygous mice used for this experiment were prepared in the same method as described in the above section “Preparation of LIS1 gene hetero-deficient mice (LIS1 heterozygous mice).”
M2 group: LIS1 heterozygous mice prepared as follows. SNJ-1945 was dissolved in dimethyl sulfoxide (Sigma, D-5879) at a concentration of 100 mg/ml, and administered to pregnant mice from Day 9.5 of the embryonic period (E9.5) in an amount of 200 μg per gram of maternal body weight per day. The administration was performed by adding SNJ-1945 to mice feed. […]
By adding SNJ-1945 to the mice feed (CE-2, CLEA Japan, Inc.), SNJ-1945 was continuously administered to the mice so that the administration amount became 200 μg per gram of body weight per day through oral administration. For a behavior analysis experiment, 12 to 16 mice were grouped to be subjected to preliminary breeding in the behavior experiment facility for 1 to 2 weeks; thereafter, the behavior of the mice was analyzed at an age of about 9 to 12 weeks. After the behavior analysis experiment, a gene type was determined for all mice. […]

[3] = test system: LIS1 heterozygous mice (Lis1+/−) embryos; experiment: Apoptosis in mouse embryo brains (TUNEL staining); format: in vivo; conditions: 100 μg/g IP to pregnant mice on alternate days from E9.5, read at E15.5, FIG. 9
Method: A neo(−)129S-Pafah1b1^tm2Awb/J homozygous male mouse lacking neo gene was mated with five homozygous EII-Cre transgenic female mice (FVB/N-Tg (EIIa-cre) C5379Lmgd/J, The Jackson Laboratory) by raising them in the same mouse cage. In total, six sets of mouse cages were prepared for the mating experiment. Plug check (confirmation of mating) was carried out every morning between 7 and 10 am, thereby determining the gestation cycle. SNJ-1945 was dissolved in dimethyl sulfoxide (DMSO) at a concentration of 100 mg/ml, and intraperitoneally injected to the pregnant mice carrying LIS1 heterozygous mice (Lis1^+/−) and the pregnant mice carrying control mice (normal mouse embryos), so that the administration amount became 100 μg per gram of body weight on alternate days from Day 9.5 of the embryonic period (E9.5). On Day 15.5 of the embryonic period (E15.5), the pregnant mice were killed by cervical fracture, and the mouse embryos were removed and immobilized for 24 hours by 4% paraformaldehyde (Wako: 162-16065). After substitution with PBS, paraffin embedding was performed by a standard method. The tissue block was cut into 5 μm pieces. Each piece was adhered to an APS-coated slide glass. After deparaffinization, 20 μg/ml proteinase K/PBS treatment was conducted for 15 minutes at room temperature, and 3% H2O2/PBS treatment was performed for ten minutes at room temperature. […]

Chain of m-calpain (derived from porcine kidney) (I3LQD3 entry or part of it): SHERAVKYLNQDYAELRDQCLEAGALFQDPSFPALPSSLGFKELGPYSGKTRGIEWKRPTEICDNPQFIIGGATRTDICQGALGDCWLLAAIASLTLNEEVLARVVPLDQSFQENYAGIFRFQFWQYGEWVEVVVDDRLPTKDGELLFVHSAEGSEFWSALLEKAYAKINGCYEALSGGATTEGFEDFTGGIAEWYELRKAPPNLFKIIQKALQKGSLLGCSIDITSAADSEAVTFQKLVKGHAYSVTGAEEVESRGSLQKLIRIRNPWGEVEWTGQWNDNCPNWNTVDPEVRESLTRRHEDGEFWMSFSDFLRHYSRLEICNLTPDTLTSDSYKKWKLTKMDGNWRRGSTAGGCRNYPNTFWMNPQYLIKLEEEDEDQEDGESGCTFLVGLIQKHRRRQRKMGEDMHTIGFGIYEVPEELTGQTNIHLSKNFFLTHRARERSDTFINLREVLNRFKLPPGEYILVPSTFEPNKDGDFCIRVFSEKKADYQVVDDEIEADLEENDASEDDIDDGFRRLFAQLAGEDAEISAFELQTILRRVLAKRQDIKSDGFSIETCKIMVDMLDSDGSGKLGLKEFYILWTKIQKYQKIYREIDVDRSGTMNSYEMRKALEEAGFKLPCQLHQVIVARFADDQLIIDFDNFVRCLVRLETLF
Chain of m-calpain (derived from porcine kidney) (P04574 whole entry, further chain): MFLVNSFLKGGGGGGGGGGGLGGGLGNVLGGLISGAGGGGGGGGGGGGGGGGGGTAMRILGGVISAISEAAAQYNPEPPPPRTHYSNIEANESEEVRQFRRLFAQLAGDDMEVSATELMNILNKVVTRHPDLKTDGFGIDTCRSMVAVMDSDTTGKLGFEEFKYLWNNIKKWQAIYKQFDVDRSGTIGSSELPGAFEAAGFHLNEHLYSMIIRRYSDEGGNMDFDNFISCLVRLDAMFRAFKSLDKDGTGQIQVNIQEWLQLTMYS

## COCCOCCOC(=O)N[C@@H](CC(C)C)C(=O)N[C@@H](Cc1ccccc1)C(=O)C(=O)NC1CC1 [compound 17, ((1S)-1-((((1S)-1-Benzyl-2,3-dioxo-3-(cyclopropylamino)propyl)amino)carbonyl)-3-methylbutyl)carbamic acid 5-methoxy-3-oxapentyl ester]
[1]
  IC50: 0.1 µM
[2]; FIG. 10
  motor ability development curve (time on the rod over repeated tests): positioned between M1 group and C group
[2]; FIG. 11
  total time spent on the rod: increased to the extent that there was almost no significant difference from C group
[3]
  apoptosis in embryo brain (TUNEL): significantly reduced
